# Read-outs that look alike come from different tables or passages of the source.
# Assays:
# [1] = system: quinolone resistant E. coli LZ3111; experiment: Antibacterial activity, MIC, quinolone resistant E. coli LZ3111; type: cell-based, Escherichia coli; details: Escherichia coli, read-out: MIC, LZ3111
# From the text: The antibacterial activity from a microbroth dilution method may be presented as the minimum inhibitory concentration (MIC in […]). The MIC value is the lowest concentration of a drug which prevents macroscopically visible bacterial growth under test conditions.
# Mutations in these regions are known to confer a high level resistance to the quinolone class of antibiotics.
# [2] = system: control Gram-negative E. coli 25922 strain; experiment: Antibacterial activity, microbroth dilution MIC, E. coli 25922; type: cell-based, Escherichia coli; details: Escherichia coli; E. coli 25922, microbroth dilution; read-out: MIC, 25922
# [3] = system: Gram-positive Staphylococcus aureus (S. aureus) 29213; experiment: Antibacterial activity, microbroth dilution MIC, S. aureus 29213; type: cell-based; details: Staphylococcus aureus; S. aureus 29213, microbroth dilution; read-out: MIC, 29213
# [4] = system: super sensitive Gram-negative Escherichia coli (E. coli) BAS849; experiment: Antibacterial activity, microbroth dilution MIC, E. coli BAS849; type: cell-based; details: Escherichia coli, read-out: MIC, BAS849
# [5] = E. coli BAS849, microbroth dilution
Compound,MIC [1] [µg/mL],MIC [2] [µg/mL],MIC [3] [µg/mL],"MIC [4, 5] [µg/mL]",MIC [4] [µg/mL]
"CCc1c(-c2ccc(N3CCC(N(Cc4ccccc4)Cc4ccccc4)CC3)cc2)[nH]c(=O)c(C(=O)O)c1O [Cpd 283, 6-{4-[4-(dibenzylamino)piperidin-1-yl]phenyl}-5-ethyl-4-hydroxy-2-oxo-1,2-dihydropyridine-3-carboxylic acid]",12.5 to 150,12.5 to 150,12.5 to 150,3.5 to 12.5,–
"CCc1c(-c2ccc(N3CCC(N)CC3)cc2)[nH]c(=O)c(C(=O)O)c1O [Cpd 284, 6-[4-(4-aminopiperidin-1-yl)phenyl]-5-ethyl-4-hydroxy-2-oxo-1,2-dihydropyridine-3-carboxylic acid]",12.5 to 150,12.5 to 150,12.5 to 150,3.5 to 12.5,–
"CCc1c(-c2ccc(N3CCC(n4ccnn4)C3)cc2)[nH]c(=O)c(C(=O)O)c1O (stereo not shown) [Cpd 287, 5-ethyl-4-hydroxy-2-oxo-6-{4-[3-(1H-1,2,3-triazol-1-yl)pyrrolidin-1-yl]phenyl}-1,2-dihydropyridine-3-carboxylic acid]",12.5 to 150,1 to 3.5,3.5 to 12.5,< 1,–
"CCc1c(-c2ccc(N3CCC(C)(O)C3)cc2)[nH]c(=O)c(C(=O)O)c1O (stereo not shown) [Cpd 289, 5-ethyl-4-hydroxy-6-[4-(3-hydroxy-3-methylpyrrolidin-1-yl)phenyl]-2-oxo-1,2-dihydropyridine-3-carboxylic acid]",12.5 to 150,1 to 3.5,1 to 3.5,< 1,–
"CCc1c(-c2ccc(N3CCC(N(C)C)C3)cc2F)[nH]c(=O)c(C(=O)O)c1O (stereo not shown) [Cpd 291, 6-{4-[3-(dimethylamino)pyrrolidin-1-yl]-2-fluorophenyl}-5-ethyl-4-hydroxy-2-oxo-1,2-dihydropyridine-3-carboxylic acid]",12.5 to 150,3.5 to 12.5,12.5 to 150,1 to 3.5,–
"CCc1c(-c2ccc(N3CC4CC3CN4C(=O)OC(C)(C)C)cc2)[nH]c(=O)c(C(=O)O)c1O (stereo not shown) [Cpd 294, 6-{4-[5-(tert-butoxycarbonyl)-2,5-diazabicyclo[2.2.1]hept-2-yl]phenyl}-5-ethyl-4-hydroxy-2-oxo-1,2-dihydropyridine-3-carboxylic acid]",12.5 to 150,12.5 to 150,1 to 3.5,–,< 1
"CCc1c(-c2ccc(N3CC4CC3CN4)cc2)[nH]c(=O)c(C(=O)O)c1O.O=C(O)C(F)(F)F (stereo not shown) [Cpd 295, 6-[4-(2,5-diazabicyclo[2.2.1]hept-2-yl)phenyl]-5-ethyl-4-hydroxy-2-oxo-1,2-dihydropyridine-3-carboxylic acid trifluoroacetate]",12.5 to 150,12.5 to 150,12.5 to 150,–,1 to 3.5
"CCc1c(-c2ccc(N3CC4=CCCC[C@@H]4C3)cc2)[nH]c(=O)c(C(=O)O)c1O.Cl [Cpd 297, 5-ethyl-6-{4-[(3aS)-1,3,3a,4,5,6-hexahydro-2H-isoindol-2-yl]phenyl}-4-hydroxy-2-oxo-1,2-dihydropyridine-3-carboxylic acid hydrochloride]",12.5 to 150,12.5 to 150,3.5 to 12.5,< 1,–
"CCc1cc(C(=O)O)c(=O)[nH]c1-c1cc(CN2CCCC2)n(C)c1 [Cpd 348, 5-ethyl-6-(1-methyl-5-(pyrrolidin-1-ylmethyl)-1H-pyrrol-3-yl)-2-oxo-1,2-dihydropyridine-3-carboxylic acid]",12.5 to 150,12.5 to 150,12.5 to 150,3.5 to 12.5,–
"CCc1cc(C(=O)O)c(=O)[nH]c1-c1cc(CN2CCCCC2)n(C)c1 [Cpd 349, 5-ethyl-6-(1-methyl-5-(piperidin-1-ylmethyl)-1H-pyrrol-3-yl)-2-oxo-1,2-dihydropyridine-3-carboxylic acid]",12.5 to 150,12.5 to 150,12.5 to 150,12.5 to 150,–
"CCc1cc(C(=O)O)c(=O)[nH]c1-c1ccc(CN2CCCC2)n1C [Cpd 350, 5-ethyl-6-(1-methyl-5-(pyrrolidin-1-ylmethyl)-1H-pyrrol-2-yl)-2-oxo-1,2-dihydropyridine-3-carboxylic acid]",12.5 to 150,12.5 to 150,12.5 to 150,12.5 to 150,–
"CCc1cc(C(=O)O)c(=O)[nH]c1-c1ccc(CN(C)C)n1C [Cpd 351, 6-(5-((dimethylamino)methyl)-1-methyl-1H-pyrrol-2-yl)-5-ethyl-2-oxo-1,2-dihydropyridine-3-carboxylic acid]",12.5 to 150,12.5 to 150,12.5 to 150,12.5 to 150,–
"CCc1cc(C(=O)O)c(=O)[nH]c1-c1ccc(CN2CCCCC2)n1C [Cpd 352, 5-ethyl-6-(1-methyl-5-(piperidin-1-ylmethyl)-1H-pyrrol-2-yl)-2-oxo-1,2-dihydropyridine-3-carboxylic acid]",12.5 to 150,12.5 to 150,12.5 to 150,12.5 to 150,–

# — patent publication US9650395B2, “Antibacterial compounds and methods for use” (PTC Therapeutics, Inc., priority 2011, dated 2017)
